Measurements reported in patent US7026330B2, “Methods for treatment of acute lymphocytic leukemia” (The Children's Hospital of Philadelphia, priority 2002, dated 2006).
“Also recorded” adds a separate entry of the source. Read-outs that look alike come from different tables or passages of the source.

Legend:
[1] = system: Eμ-RET+ mice with advanced leukemia; test: RAD001 in the ALL mouse model; type: in vivo; settings: daily oral administration
From the text: RAD001 inhibits growth >50–90% in ALL cell lines. Daily oral administration of RAD001 extends survival almost 4 fold in Eμ-RET+ mice with advanced leukemia (high white blood count, large nodal masses, and massive hepatosplenomegaly) as compared to untreated littermates.

[2] = system: ALL cell lines; test: RAD001 growth suppression in ALL cells in vitro; type: cell-based
[3] = cited from earlier work; for trough concentration: Phase III studies with cyclosporine, steroid, or both; for mean time-to-peak concentration: oral
[4] = cited from earlier work
[5] = system: Eμ-RET+ transgenic mice with overt disease; settings: for Plt, mean / WBC, mean / Weight, mean: treated group
Method: Mice were assessed three times a week for overt signs of disease (enlarged lymph nodes, organomegaly, and anemia). […] Prior to randomization, easily accessible enlarged lymph nodes were biopsied for cell culture and further in vitro study. Peripheral blood for CBC with differential (HemaVet 850FS, Cell Technologies, Oxford, Conn.) and pK studies was obtained by eye bleeding at days 0, 7, 14 and then every other week until death. Peripheral blood as well as single cell suspension from bone marrow, lymph nodes and/or spleen was obtained at death. Weights were monitored three times a week. […] Animals were sacrificed when moribund. Event free survival (EFS) was determined from onset of disease until death, and analyzed using STATA 7.0 (STATA Corporation, College Park, Tex.).

[6] = system: steroid refractory severe acute GVHD; settings: cited from earlier work
[7] = system: Eμ-RET+ transgenic mouse derived cell lines, #83, T309, #289, #420.2; test: MTT proliferation assay, ALL cell lines; type: cell-based
Method: (§1) Cell Preparation and Cell Culture Conditions. A single cell suspension of bone marrow or lymph nodes from leukemic Eμ-RET+ transgenic mice was prepared [Wasserman, 1998]. These ALL cells were maintained at 37° C. with 5% CO2 in RPMI-1640, L-Glutamine, 10 mM HEPES, 1 mM Sodium Pyruvate, 100 μM non-essential amino acids, 100 U/ml penicillin, 100 μg/ml streptomycin (GibCo-BRL, Rocksville, Md.), 50 μM 2-mercaptoethanol (FisherScientific, Fair Lawn, N.J.)+10% Fetal Calf Serum (HyClone, Logan, Utah)+10% Calf Serum (HyClone, Logan Utah) (C20 media) with 10 U/ml IL-7. Cell surface markers on these cells were determined by flow cytometry as described previously [Wasserman, 1998], and the phenotype was stable in culture over time.
(§2) Proliferation Assays. Cells were cultured in IL-7-free C20 media for 24 hours. […] Cell growth was assayed using methyl-thiazole-tetrazolin (MTT) [Mosmann, 1983]. After removing 50 μl media from each well, 10 μl MTT, 5 mg/ml, (Sigma, St. Louis, Mo.) was added to each sample and incubated for 4 hours. 150 μl 1% HCL/Isopropanol was added to each sample and mixed vigorously until all crystals dissolved. Absorbance was measured at OD595 using microplate spectrophotometer (Benchmark Microplate Reader, Bio-Rad Laboratories, Hercules, Calif.). Results are expressed as mean of absolute absorbance numbertreated sample divided by the mean of absolute absorbance numbercontrol sample. Results >1 indicates proliferation whereas results <1 indicates growth inhibition.

[8] = system: pro-B ALL cell line T309; test: Apoptosis assay (Annexin V-FITC, flow cytometry); type: cell-based, mouse; settings: 72 hours, baseline 24%
Method: Apoptosis Assay. […] Levels of exposed phosphotidylserine on viable cells were measured using the ApoAlert Annexin V detection kit (Clontech, Palo Alto, Calif.). Cells were incubated with FITC-conjugated Annexin V, and log fluorescence intensity was analyzed by flow cytometry using a FACScan cytometer (Becton-Dickinson, Franklin Lakes, N.J.).

[9] = system: cell line #83; test: MTT proliferation assay, cell line #83; type: cell-based, mouse; settings: increasing rmIL-7 0–30 U/ml, no stroma, 4–5 days
Method: as §1
as §2, with “150 μl 1% HCL/Isopropanol was added to each sample and mixed vigorously until all crystals dissolved.” left out, “Results >1 indicates proliferation whereas results <1 indicates growth inhibition.” left out

[10] = system: cell line #420.2; test: MTT proliferation assay, cell line #420.2; type: cell-based, mouse; settings: increasing rmIL-7 0–30 U/ml, no stroma, 4–5 days
Method: as §1
as §2, with “150 μl 1% HCL/Isopropanol was added to each sample and mixed vigorously until all crystals dissolved.” left out, “Results >1 indicates proliferation whereas results <1 indicates growth inhibition.” left out

[11] = system: phosphor-p70S6 kinase (Thr389); test: Immunoblotting of p70S6 kinase in ALL cell line #289; type: cell-based, mouse; settings: 4 hours
Method: Crude Lysate Preparation and Immunoblotting. […] After harvesting, cells were washed with ice cold PBS and then lysed in 100 μl of 1% Triton-X containing protease and phosphatase inhibitors (1 μg/ml apoprotinin, 1 μg/ml leupeptin, 1 mM […], 1 mM NaF, 0.1 mM AEBSF) at 4° C. for 5 minutes. Crude lysates were obtained by centrifugation (12,000 rpm at 4° C. for 20 minutes). Protein concentrations were determined using Bio-Rad Protein assay kit (Bio-Rad Laboratories, Hercules, Calif.). Equal amounts of protein were analyzed by 4–12% Tris-Bis gel electrophoresis and transferred to PVDF membranes (NuPage Invitrogen, Carlsbad, Calif.). Specific proteins were detected with anti-Phosphor-p70S6 kinase (Thr389) and anti-total p70S6 kinase antibodies (Cell Signaling Technologies, Beverly, Mass.) diluted in TTBS (1:500). Immunodetection was performed with horseradish peroxidase-conjugated anti-rabbit IgG and then developed by chemoluminescence (Amersham Pharmacia Biotech, Piscataway, N.J.). Immunoblots were stripped for reprobing by incubating immunoblots in stripping buffer (100 mM 2-mercaptoethanol, 2% sodium dodecyl sulphate, 62.5 mM Tris-HCl pH 6.7) for 30 minutes in 37° C. water bath with occasional agitation. […] Specific proteins were immunoblotted and detected as above.

[12] = system: YES proto-oncogene; test: mRNA expression in ALL cells (Affymetrix MG-U74Av4 Genechips); type: cell-based; settings: addition of IL-7
From the text: We found the most profound change in expression in the YES proto-oncogene, a member of the src family of kinases. […] However, the ability of IL-7 to reverse rapamycin-induced growth inhibition may involve other target proteins downstream of p70S6 kinase, such as p27kip1 or cdk2.

[13] = system: A20 mature B cell line; test: Proliferation of mature B cell line A20; type: cell-based; settings: data not shown
Method: as §2

[14] = system: cell line T309; test: MTT proliferation assay, cell line T309; type: cell-based, mouse; settings: increasing rmIL-7 0–30 U/ml, no stroma, 4–5 days
Method: as §1
as §2, with “150 μl 1% HCL/Isopropanol was added to each sample and mixed vigorously until all crystals dissolved.” left out, “Results >1 indicates proliferation whereas results <1 indicates growth inhibition.” left out

[15] = system: #781 cell line; test: MTT proliferation assay, cell line #781; type: cell-based, mouse; settings: increasing rmIL-7 0–30 U/ml, no stroma, 4–5 days
Method: as §1
as §2, with “150 μl 1% HCL/Isopropanol was added to each sample and mixed vigorously until all crystals dissolved.” left out, “Results >1 indicates proliferation whereas results <1 indicates growth inhibition.” left out

[16] = system: ALL cell line #289; test: MTT proliferation assay, cell line #289; type: cell-based, mouse
Method: as §1, §2

[17] = Mus musculus, 72 h, read-out: inhibition of growth

In the case of `CO[C@H]1C[C@@H]2CC[C@@H](C)[C@@](O)(O2)C(=O)C(=O)N2CCCC[C@H]2C(=O)O[C@H]([C@H](C)C[C@@H]2CC[C@@H](OCCO)[C@H](OC)C2)CC(=O)[C@H](C)/C=C(\C)[C@@H](O)[C@@H](OC)C(=O)[C@H](C)C[C@H](C)/C=C/C=C/C=C/1C` [RAD001, everolimus], the “extension of survival vs untreated littermates” value [1] is reported as roughly 4 fold, the nodal masses [1] is reported as “disappearance of nodal masses” and the “peripheral WBC counts” value [1] is reported as “normalization of peripheral WBC counts”. For the same molecule, the growth inhibition [2] was 50–90%.

For `CO[C@H]1C[C@@H]2CC[C@@H](C)[C@@](O)(O2)C(=O)C(=O)N2CCCC[C@H]2C(=O)O[C@H]([C@H](C)C[C@@H]2CC[C@@H](O)[C@H](OC)C2)CC(=O)[C@H](C)/C=C(\C)[C@@H](O)[C@@H](OC)C(=O)[C@H](C)C[C@H](C)/C=C/C=C/C=C/1C` [rapamycin], the trough concentration ([3]; 2 mg/day) is given as 8.58 ± 4.0 ng/mL, the trough concentration ([3]; 5 mg/day) is given as 17.3 ± 7.4 ng/mL and the “elimination of the drug via the GI tract” value ([3]; human, in vivo) is given as 91%. The metabolism ([3]; human, in vivo) was “intestinal and hepatic CYP3A4 enzyme family”, the “time to near steady-state concentrations” value ([3]; loading dose of 3 times the maintenance dose, most patients) was no more than 1 days and the mean time-to-peak concentration ([3]; healthy subjects) was 1 h. For the same molecule, the mean time-to-peak concentration ([3]; renal transplant recipients) was 2 h, the “typical serum levels of patients” value ([3]; patients on rapamycin [MacDonald, 2000]) was 8 to 12 ng/mL and the half-lives ([3]; pediatric patients 5–11 years) was “shorter”. The oral clearances ([3]; pediatric patients 5–11 years) was “greater”, the “dose dependence of concentrations” value ([3]; stable renal transplant patients, between 3 and 12 mg/m^2) was “dose proportional” and the major side effects ([4]; adult organ rejection trials, 2 mg or 5 mg daily with cyclosporine and corticosteroids) was “thrombocytopenia, hypercholesteremia, hypertriglyceridemia, and diarrhea”. The “toxicities of CTC Grade III and IV” value ([4]; pediatric kidney transplantation, with corticosteroids and MMF) was “stomatitis, hypercholesteremia, and hypertriglyceridemia”, the “toxicity in single dosing studies” value ([4]; single doses ranging from 3–21 mg/m^2) was “No toxicity” and the “mean hemoglobin and platelet counts, untreated vs rapamycin treated mice” value ([5]; 5 mg/kg IP daily) was “not significantly different”. For the same molecule, the “time to normalization of WBC after instituting therapy” value ([5]; 5 mg/kg IP daily) was 7 to 10 days, the “weights of treated versus untreated groups” value ([5]; 5 mg/kg IP daily) was “not significantly different” and the “average time from diagnosis to death” value ([5]; 5 mg/kg IP daily, N=34, untreated 12 days (N=23), p<0.001) was 30 days. For the same molecule, the “extension of survival vs untreated mice” value ([5]; 5 mg/kg IP daily, single agent, advanced disease) was roughly 3 fold, the “WBC nadir of the typical mouse of FIG. 8” value ([5]; after 14 days of rapamycin, WBC 28.8 at presentation) was 3.2 and the “Plt, mean” value ([5]; D0) was 695000 µL⁻¹. For the same molecule, the “WBC, mean” value ([5]; D0) was 47800 µL⁻¹, the “Weight, mean” value ([5]; D0) was 25.6 grams and the “Plt, mean” value ([5]; D7) was 584000 µL⁻¹. For the same molecule, the “WBC, mean” value ([5]; D7) was 18500 µL⁻¹, the “Weight, mean” value ([5]; D14) was 28.1 grams and the “Plt, mean” value ([5]; at sacrifice) was 573000 µL⁻¹. For the same molecule, the “WBC, mean” value ([5]; at sacrifice) was 31000 µL⁻¹, the “Weight, mean” value ([5]; at sacrifice) was 28.10 grams and the “Plt, mean” value ([5]; d21) was 526000 µL⁻¹. For the same molecule, the “WBC, mean” value ([5]; d21) was 14300 µL⁻¹, the “discontinuation of drug because of toxicities” value ([6]; 21 patients) was 5 patients and the “hemolytic uremic syndrome developed” value ([6]; cyclosporine dose not reduced) was 5 patients. For the same molecule, the “most common side effects” value ([6]; in vivo) was “thrombocytopenia and neutropenia, elevated serum triglycerides and cholesterol”, the inhibition at 0.001 µg/mL [7, 17] was greater than 40% and the inhibition at 0.1 µg/mL [7, 17] was greater than 70%. The “cells labeled with Annexin V” value ([8]; 1 ng/ml rapamycin) was 44% and the “cells labeled with Annexin V” value ([8]; 100 ng/ml rapamycin) was 51%.

B1: rmIL-7: recombinant mouse IL-7 (rmIL-7) (Leinco Technologies, Inc.) (protein, UniProt P10168 26-154, looked up)
Interleukin-7: ECHIKDKEGKAYESVLMISIDELDKMTGTDSNCPNNEPNFFRKHVCDDTKEAAFLNRAARKLKQFLKMNISEEFNVHLLTVSQGTQTLVNCTSKEEKNVKEQKKNDACFLKRLLREIKTCWNKILKGSI
With B1 the increase in proliferation [9] was roughly 100 fold, the increase in proliferation [10] was 2.2 fold and the “effect on rapamycin-induced decrease in phosphor-p70S6 kinase” value ([11]; 10 U/ml IL-7 + 100 ng/ml rapamycin, listed as IL-7) was “reversed; also recorded: restored to baseline”. The “p70S6 kinase total protein levels” value ([11]; 100 ng/ml rapamycin or 10 U/ml IL-7) was “unchanged”, the “effect on YES expression in rapamycin-treated cells” value [12] was “completely rescued” and the proliferation [13] was “not affected”. The increase in proliferation [14] was 3.7 fold, the increase in proliferation [15] was 16 fold and the increase in proliferation ([16]; increasing rmIL-7 0–30 U/ml, no stroma, 4–5 days) was 2.2 fold. The “reversal of rapamycin-induced growth inhibition” value ([16]; rmIL-7 10 U/ml with rapamycin 1 ng/ml, 3 days) was “completely reverses”, the “reversal of rapamycin's effect on cell growth” value ([16]; rmIL-7 10 U/ml with rapamycin 100 ng/ml, 3 days, only partial) was ~80 % of baseline and the “concentration at which the response appears to plateau” value ([7]; cell lines #83, #781, T309, #289, #420.2) was 10–30 U/ml.
